Tests used:
MDA tumor xenografts = experiment: Human tumor xenografts in athymic nude mice, tumor weight; assay type: in vivo; conditions: Sal-B 80 mg/kg three times per week, intraperitoneal; day 37; mean±SD; untreated control 0.81±0.12 g
Procedure: (§1) Human tumor xenografts in athymic nude mice. […] The animal protocol was approved by the Howard University Animal Care and Use Committee. Four-week-old female athymic nude mice (Nu/Nu) were obtained from Harlan Sprague Dawley (Indianapolis, IN). All mice were provided the Harlan Teklad #2018 Global 18% protein rodent diet and water ad libitum. Mice were housed in temperature-controlled rooms (74±2° F.) with a 12-hour alternating light-dark cycle. MDA cells (3×10^6/50 μL/spot) were subcutaneously injected into the both sides of lower back of mice using a 27-gauge needle. On day 10 after cell implantation, the mice with tumors (˜5 mm in diameter) were randomly divided into Sal-B treated, doxorubicin treated, and untreated groups (five mice per group), and were administrated Sal-B (80 mg/kg, three times per week), doxorubicin (4 mg/kg, every four weeks) and 0.9% saline (50 μl, three times per week), respectively, by intraperitoneal injection for a total of 37 days. […] All mice were sacrificed on day 37.

Bcl-xL = experiment: Western blot of Bcl-xL expression in MDA and MCF-7 cells; assay type: cell-based, human; conditions: Sal-B 50 μM and 100 μM, 24 hours
Procedure: (§2) The immunohistochemical results were consistent with those from Western blotting (FIG. 7, panel A). Western blot analysis was used to determine the expression of apoptosis-related proteins Bcl-XL, survivin, caspase-3 and caspase-8 (FIG. 7, panel A). β-actin was used as an internal control for Western blotting. The MCD-7 and MDA cells were treated with Sal-B (50 μM and 100 μM) and doxorubicin (0.1 μM and 1 μM), respectively, for 24 hours. Proteins were extracted from the cells with RIPA lysis buffer (Santa Cruz Biotechnology, Santa Cruz, CA) and the protein concentrations were quantified with Bio-Rad protein quantification kit. Whole-cell proteins were separated on 8% SDS-polyacrylamide gel, transferred to the polyvinylidene difluoride membrane (Bio-Rad), and then probed with the indicated primary antibodies overnight at 4° C. Washed blots were then incubated with horseradish peroxidase-conjugated anti-rabbit, anti-mouse, or anti-goat antibody (Santa Cruz Biotechnology), respectively, for one hour at room temperature. Blots were developed and visualized with ECL detection system (Bio-Rad).

survivin [1] = experiment: Western blot of survivin expression in MDA and MCF-7 cells; assay type: cell-based, human; conditions: Sal-B 50 μM and 100 μM, 24 hours
Procedure: as §2

survivin [2] = experiment: Immunohistochemical staining of survivin in MDA tumor xenografts; assay type: in vivo, athymic nude mice; conditions: Sal-B 80 mg/kg three times per week; versus untreated group
Procedure: (§3) Human tumor xenografts in athymic nude mice. […] The animal protocol was approved by the Howard University Animal Care and Use Committee. Four-week-old female athymic nude mice (Nu/Nu) were obtained from Harlan Sprague Dawley (Indianapolis, IN). All mice were provided the Harlan Teklad #2018 Global 18% protein rodent diet and water ad libitum. Mice were housed in temperature-controlled rooms (74±2° F.) with a 12-hour alternating light-dark cycle. MDA cells (3×10^6/50 μL/spot) were subcutaneously injected into the both sides of lower back of mice using a 27-gauge needle. […]
(§4) Immunohistochemical staining was performed as described previously (Hao Y, et al., “Enforced expression of miR-101 inhibits prostate cancer cell growth by modulating the COX-2 pathway in vivo,” Cancer Prev Res (Phila), 2011; 4: 1073-1083). […] For the quantification, ten high-magnification (40×) fields were randomly selected from each slide of tumors and the positive cells were counted. The protein expression was expressed as the average number of positive cells per high magnification field.

ceramides = experiment: Ceramide levels in MDA cells by flow cytometry; assay type: cell-based, human; conditions: Sal-B 50 μM, 24 hours
Procedure: Ceramide levels were further analyzed with flow cytometry, according to the method described above, through comparison of Sal-B treated and untreated MDA cells. MDA cells were treated with 50 μM and 100 μM of Sal-B, respectively, for 24 hours and ceramide levels were then analyzed by flow cytometry.
Similarly, immunohistochemistry was carried out, as generally described above, to evaluate the expression of ceramides in MDA tumor xenografts (FIG. 9, panel C). The fixed cells were sequentially incubated with anti-ceramide primary antibody (1:100) for 2 hours and PE-labeled secondary antibody (1:200) for 30 minutes, and the ceramide positive cells were counted (FIG. 9, panel B).

cyclin B1 = experiment: Western blot of cyclin B1 expression in MDA and MCF-7 cells; assay type: cell-based, human; conditions: Sal-B 50 μM and 100 μM, 24 hours
Procedure: The expression of two cell cycle-related proteins—cyclin A and cyclin B1—was checked by Western blot. The expression of cyclin A and cyclin B1 was normalized by the expression of the internal control β-actin (lower panel). The cells were treated with 50 μM and 100 μM Sal-B, respectively, for 24 hours. Doxorubicin (0.1 μM and 1 μM) was used as a control. […] The results may be explained by that the cell cycle progression is controlled by a large set of molecules, although cyclin B1 is a key component in the control of cell cycle progression from G2 to M phase.
as §2

[3] = tested on: proliferating cell nuclear antigen (PCNA); experiment: Immunohistochemical staining of PCNA in MDA tumor xenografts; assay type: in vivo, athymic nude mice; conditions: Sal-B 80 mg/kg three times per week; versus untreated; P<0.05
Procedure: as §3, §4

p-ERK = experiment: Western blot of p-ERK expression in MCF-7 and MDA cells; assay type: cell-based, human; conditions: different concentrations of Sal-B, 24 hours
Procedure: as §2
Because phospho-p44/42 extracellular signal-regulated kinases (p-ERK) is a key enzyme in the MAPK signal pathway, the expression of p-ERK was also investigated in MCF-7 and MDA cells following exposure to different concentrations of Sal-B for 24 hours.

[4] = tested on: glucosylceramide synthase (GCS); experiment: Western blot of GCS expression in MDA and MCF-7 cells; assay type: cell-based, human; conditions: for GCS protein level (normalized to β-actin): Sal-B 50 μM; for GCS expression, further effect versus 50 μM: Sal-B 100 μM
Procedure: as §2
To understand the mechanism underlying increased ceramide accumulation, the expression levels of GCS and GM3 synthase were measured by Western blot analysis in MDA and MCF-7 cells treated by various concentrations of Sal-B (FIG. 8). The amount of protein expression was normalized by the expression of the internal control β-actin. […] Sal-B was found effective to down-regulate GCS and GM3 synthase expression in cancer cells.

[5] = Body weight and side effects of treated mice; assay type: in vivo; conditions: applicant's previous studies
Procedure: as §1

Structure (SMILES): O=C(/C=C/c1ccc(O)c2c1[C@H](C(=O)O[C@H](Cc1ccc(O)c(O)c1)C(=O)O)[C@@H](c1ccc(O)c(O)c1)O2)O[C@H](Cc1ccc(O)c(O)c1)C(=O)O [Sal-B, Salvianolic acid B]
- average tumor weight (MDA tumor xenografts): 0.26 ± 0.06 g
- Bcl-xL protein expression (Bcl-xL; MCF-7 cells): downregulated
- Bcl-xL protein expression (Bcl-xL; MDA cells): downregulated
- survivin protein expression (survivin [1]; MCF-7 cells): downregulated
- survivin protein expression (survivin [1]; MDA cells): downregulated
- survivin level in tumors (survivin [2]): decreasing
- ceramide level by flow cytometry (ceramides): sufficient to enhance the ceramide level
- cyclin B1 expression (normalized to β-actin) (cyclin B1; MCF-7 cells): down-regulation
- cyclin B1 expression (normalized to β-actin) (cyclin B1; MDA cells): down-regulation
- PCNA levels in tumor xenografts [3]: higher in untreated MDA tumor xenografts
- p-ERK expression (normalized to β-actin) (p-ERK; MCF-7 cells): down-regulated
- p-ERK expression (normalized to β-actin) (p-ERK; MDA cells): down-regulated
- GCS protein level (normalized to β-actin) ([4]; MCF-7 cells): sufficient to inhibit GCS protein level
- GCS expression, further effect versus 50 μM ([4]; MCF-7 cells): No further inhibitory effect
- GCS protein level (normalized to β-actin) ([4]; MDA cells): sufficient to inhibit GCS protein level
- GCS expression, further effect versus 50 μM ([4]; MDA cells): No further inhibitory effect
- side effects ([5]; Sal-B 80 mg/kg three times per week): no obvious side effects
- side effects at higher dosage ([5]; Sal-B dosage higher than 80 mg/kg three times per week): weight loss in some mice

— patent US12383527B2, “Methods for treating triple negative breast cancer using salvianolic acid B” (HOWARD UNIVERSITY, priority 2018, dated 2025)
